Experimental data taken from ChEMBL document CHEMBL3046521, “Synthesis and antitumor activity of (4-hydroxyphenyl)[5-substituted alkyl/aryl)-2-thioxo-1,3,4-thiadiazol-3-yl]methanone and [(3,4-disubstituted)-1,3-thiazol-2ylidene]-4-hydroxybenzohydrazide” (2011).

How the values were obtained:
Assay type in all cases: functional
HCT-116 = assay: Cytotoxicity against Homo sapiens (human) HCT116 cells after 48 hr by sulforhodamine B assay; settings: HCT-116, 48 h
M14 = assay: Cytotoxicity against Homo sapiens (human) M14 cells after 48 hr by sulforhodamine B assay; settings: M14, 48 h
SK-OV-3 = assay: Cytotoxicity against Homo sapiens (human) SKOV3 cells after 48 hr by sulforhodamine B assay; settings: SK-OV-3, 48 h
SW-620 = assay: Cytotoxicity against Homo sapiens (human) SW620 cells after 48 hr by sulforhodamine B assay; settings: SW-620, 48 h
[1] = Cytotoxicity against Homo sapiens (human) […] cells after 48 hr by sulforhodamine B assay
A498 = assay: Cytotoxicity against Homo sapiens (human) A498 cells after 48 hr by sulforhodamine B assay; settings: A498, 48 h
CAKI-1 = assay: Cytotoxicity against Homo sapiens (human) Caki1 cells after 48 hr by sulforhodamine B assay; settings: CAKI-1, 48 h
BT-549 = assay: Cytotoxicity against Homo sapiens (human) BT549 cells after 48 hr by sulforhodamine B assay; settings: BT-549, 48 h
HOP-92 = assay: Cytotoxicity against Homo sapiens (human) HOP92 cells after 48 hr by sulforhodamine B assay; settings: HOP-92, 48 h
MDA-MB-468 = assay: Cytotoxicity against Homo sapiens (human) MDA-MB-468 cells after 48 hr by sulforhodamine B assay; settings: MDA-MB-468, 48 h
SNB-19 = assay: Cytotoxicity against Homo sapiens (human) SNB19 cells after 48 hr by sulforhodamine B assay; settings: SNB-19, 48 h
MOLT-4 = assay: Cytotoxicity against Homo sapiens (human) MOLT4 cells after 48 hr by sulforhodamine B assay; settings: MOLT-4, 48 h
IGROV-1 = assay: Cytotoxicity against Homo sapiens (human) IGROV1 cells after 48 hr by sulforhodamine B assay; settings: IGROV-1, 48 h
Malme-3M = assay: Cytotoxicity against Homo sapiens (human) MALME-3M cells after 48 hr by sulforhodamine B assay
HL-60(TB) = assay: Cytotoxicity against Homo sapiens (human) HL-60(TB) cells after 48 hr by sulforhodamine B assay; settings: HL-60, 48 h
HOP-62 = assay: Cytotoxicity against Homo sapiens (human) HOP62 cells after 48 hr by sulforhodamine B assay; settings: HOP-62, 48 h
NCI-H23 = assay: Cytotoxicity against Homo sapiens (human) NCI-H23 cells after 48 hr by sulforhodamine B assay; settings: NCI-H23, 48 h
NCI-H522 = assay: Cytotoxicity against Homo sapiens (human) NCI-H522 cells after 48 hr by sulforhodamine B assay; settings: NCI-H522, 48 h
Hs-578T = assay: Cytotoxicity against Homo sapiens (human) Hs 578T cells after 48 hr by sulforhodamine B assay
HCC 2998 [2] = assay: Anticancer activity in Homo sapiens (human) HCC2998 cells assessed as cell growth at 10^-5 M after 48 hr by SRB assay; settings: HCC 2998, 48 h, read-out: Activity
SK-MEL-5 = assay: Cytotoxicity against Homo sapiens (human) SK-MEL-5 cells after 48 hr by sulforhodamine B assay; settings: SK-MEL-5, 48 h
HCC 2998 [3] = assay: Cytotoxicity against Homo sapiens (human) HCC2998 cells after 48 hr by sulforhodamine B assay; settings: HCC 2998, 48 h
MCF7 = assay: Cytotoxicity against Homo sapiens (human) MCF7 cells after 48 hr by sulforhodamine B assay; settings: MCF7, 48 h
OVCAR-3 = assay: Cytotoxicity against Homo sapiens (human) OVCAR3 cells after 48 hr by sulforhodamine B assay; settings: OVCAR-3, 48 h
MDA-MB-435 = assay: Cytotoxicity against Homo sapiens (human) MDA-MB-435 cells after 48 hr by sulforhodamine B assay; settings: MDA-MB-435, 48 h
COLO 205 = assay: Cytotoxicity against Homo sapiens (human) COLO205 cells after 48 hr by sulforhodamine B assay; settings: COLO 205, 48 h
MDA-MB-231 = assay: Cytotoxicity against Homo sapiens (human) MDA-MB-231 cells after 48 hr by sulforhodamine B assay; settings: MDA-MB-231, 48 h
SN12C = assay: Cytotoxicity against Homo sapiens (human) SN12C cells after 48 hr by sulforhodamine B assay
OVCAR-8 = assay: Cytotoxicity against Homo sapiens (human) OVCAR8 cells after 48 hr by sulforhodamine B assay; settings: OVCAR-8, 48 h
CCRF-CEM = assay: Cytotoxicity against Homo sapiens (human) CCRF-CEM cells after 48 hr by sulforhodamine B assay
[4] = read-out: pLC50 (the source's name) (converted)

SMILES: O=C(c1ccc(O)cc1)n1nc(-c2c(Cl)cccc2Cl)sc1=S
- GI50 (HCT-116): 10.7 µM
- LC50 (HCT-116): 52.5 µM
- TGI (HCT-116; read-out: pTGI (converted)): 24 µM
- GI50 (M14): 8.91 µM
- LC50 (M14): 67.6 µM
- TGI (M14; read-out: pTGI (converted)): 25.7 µM
- GI50 (SK-OV-3): 17.4 µM
- LC50 (SK-OV-3): > 100 µM
- TGI (SK-OV-3; read-out: pTGI (converted)): 44.7 µM
- GI50 (SW-620): 12 µM
- LC50 (SW-620): 87.1 µM
- TGI (SW-620; read-out: pTGI (converted)): 31.6 µM
- GI50 [1]: 7.59 µM
- LC50 [1]: > 100 µM
- TGI ([1]; read-out: pTGI (converted)): 60.3 µM
- GI50 (A498): 2340 nM
- CC50 (A498; [4]): 53.7 µM
- TGI (A498; read-out: pTGI (converted)): 17 µM
- GI50 (CAKI-1): 6.03 µM
- LC50 (CAKI-1): > 100 µM
- TGI (CAKI-1; read-out: pTGI (converted)): 57.5 µM
- GI50 (BT-549): 28.8 µM
- LC50 (BT-549): > 100 µM
- TGI (BT-549; read-out: pTGI (converted)): 60.3 µM
- GI50 (HOP-92): 324 nM
- LC50 (HOP-92): 43.7 µM
- TGI (HOP-92; read-out: pTGI (converted)): 7.76 µM
- GI50 (MDA-MB-468): 8.71 µM
- LC50 (MDA-MB-468): > 100 µM
- TGI (MDA-MB-468; read-out: pTGI (converted)): 91.2 µM
- GI50 (SNB-19): 15.1 µM
- LC50 (SNB-19): > 100 µM
- TGI (SNB-19; read-out: pTGI (converted)): 67.6 µM
- GI50 (MOLT-4): 4.47 µM
- LC50 (MOLT-4): > 100 µM
- TGI (MOLT-4; read-out: pTGI (converted)): 27.5 µM
- GI50 (IGROV-1): 12.9 µM
- LC50 (IGROV-1): > 100 µM
- TGI (IGROV-1; read-out: pTGI (converted)): 89.1 µM
- GI50 (Malme-3M): 29.5 µM
- LC50 (Malme-3M): > 100 µM
- TGI (Malme-3M; read-out: pTGI (converted)): 49 µM
- GI50 (HL-60(TB)): 2000 nM
- CC50 (HL-60(TB); [4]): > 100 µM
- TGI (HL-60(TB); read-out: pTGI (converted)): 30.9 µM
- GI50 (HOP-62): 18.6 µM
- LC50 (HOP-62): > 100 µM
- TGI (HOP-62; read-out: pTGI (converted)): 43.7 µM
- GI50 (NCI-H23): 12.6 µM
- LC50 (NCI-H23): > 100 µM
- TGI (NCI-H23; read-out: pTGI (converted)): 53.7 µM
- GI50 (NCI-H522): 11.7 µM
- LC50 (NCI-H522): > 100 µM
- TGI (NCI-H522; read-out: pTGI (converted)): 41.7 µM
- GI50 (Hs-578T): 29.5 µM
- LC50 (Hs-578T): > 100 µM
- TGI (Hs-578T; read-out: pTGI (converted)): 89.1 µM
- growth at 10 µM (HCC 2998 [2]): 17.1%
- GI50 (SK-MEL-5): 10.7 µM
- LC50 (SK-MEL-5): 56.2 µM
- TGI (SK-MEL-5; read-out: pTGI (converted)): 24.5 µM
- GI50 (HCC 2998 [3]): 4.9 µM
- LC50 (HCC 2998 [3]): > 100 µM
- TGI (HCC 2998 [3]; read-out: pTGI (converted)): 28.8 µM
- GI50 (MCF7): 11.5 µM
- LC50 (MCF7): 87.1 µM
- TGI (MCF7; read-out: pTGI (converted)): 32.4 µM
- GI50 (OVCAR-3): 6.17 µM
- LC50 (OVCAR-3): 67.6 µM
- TGI (OVCAR-3; read-out: pTGI (converted)): 28.8 µM
- GI50 (MDA-MB-435): 3.72 µM
- LC50 (MDA-MB-435): > 100 µM
- TGI (MDA-MB-435; read-out: pTGI (converted)): 31.6 µM
- GI50 (COLO 205): 13.5 µM
- LC50 (COLO 205): 64.6 µM
- TGI (COLO 205; read-out: pTGI (converted)): 29.5 µM
- GI50 (MDA-MB-231): 13.2 µM
- LC50 (MDA-MB-231): > 100 µM
- TGI (MDA-MB-231; read-out: pTGI (converted)): 60.3 µM
- GI50 (SN12C): 11.2 µM
- LC50 (SN12C): > 100 µM
- TGI (SN12C; read-out: pTGI (converted)): 46.8 µM
- GI50 (OVCAR-8): 22.9 µM
- LC50 (OVCAR-8): > 100 µM
- TGI (OVCAR-8; read-out: pTGI (converted)): 72.4 µM
- GI50 (CCRF-CEM): 9.55 µM
- LC50 (CCRF-CEM): > 100 µM
- TGI (CCRF-CEM; read-out: pTGI): > 100 µM
